# Measured values from US4855304A, “Dinucleoside pyrophosphates and pyrophosphate homologs as plant antivirals” (Repligen Corporation, priority 1985, dated 1989).
# Read-outs that look alike come from different tables or passages of the source.
# Key:
# [1] = test system: TMV (tobacco mosaic virus) replication in TMV-infected tobacco leaf discs; assay: Antiviral activity in TMV-infected leaf discs (TMV content by ELISA); format: cell-based, tobacco mosaic virus; leaf discs of N. tabacum var. samsun; design: key to TMV content: N.I.: no inhibition; details: for inhibition at 0.1 µM / inhibition at 0.2 µM: Tobacco mosaic virus, read-out: percent inhibition as related to control
# Procedure: Assays for antiviral activity in TMV-infected leaf discs were done using leaves of N. tabacum var. samsun in which TMV is systemically spread. Leaves were mechanically inoculated with purified TMV (5 μg/ml in 0.01M sodium phosphate buffer, pH 7.6, containing 0.1 g/ml of carborundum as an abrasive). Immediately after infection, leaf discs (6.5 mm diameter) were punched out of the inoculated leaves and placed in a beaker containing 0.01M sodium phosphate, pH 7.6.
# selected at random from this common pool and placed onto separate petri dishes, each containing 18 ml of 10 mM 4-(2-hydroxyethyl)-1-piperazine ethanesulfonic acid (HEPES)-KOH, pH 7.05, 188 mg/L Na2 HPO4 --7H2 O. […] At the end of the 1 hr incubation, the buffer containing the antiviral dinucleotide was replaced by a buffer lacking the antiviral dinucleotide for another hr. The discs were then washed with 0.01M sodium phosphate, pH 7.6, and were allowed to incubate for an additional 72 hr in phosphate buffer (Devash, Y., Biggs, S. and Sela, I. [1982] Science 216: 1415-1416; Devash, Y. et al. [1984] J. Biol. Chem. 259: 3482-3486). The discs were homogenized in 0.01M sodiuM phosphate buffer, pH 7.6, and the TMV content was determined by enzyme-linked immunosorbent assay (ELISA) as described below.
# (§1) The TMV content of the homogenates was determined by ELISA essentially by the method of Clark and Adams ([1977] J. Gen. Virol. 34: 475-483) but with the following order of layers on the microtiter plates.
# (§2) (a) the γ-globulin fraction of a serum obtained from a chicken immunized against TMV was absorbed directly to the plate.
# (§3) (b) The next layer was the tested sample (at various dilutions) or a series of purified TMV suspensions at known concentrations (calibration curve).
# (§4) (c) The third layer was the γ-globulin from the serum of a TMV-immunized rabbit.
# (§5) (d) The final layer was goat antibody to rabbit immunoglobulin G conjugated with alkaline phosphatase (Sigma). The release of phosphate from p-nitrophenyl phosphate due to the antibody-conjugated alkaline phosphatase was monitored spectrophotometrically with a Microplate reader (Dynatech Diagnostics, Inc. South Windham, ME) and was proportional to TMV concentration in a log linear manner for about two logs (<2 ng to>200 ng). (Devash, Y., Biggs, S. and Sela, I. [1982] Science 216: 1415-1416)
# The γ-globulin fraction of serum obtained from chickens and rabbits immunized against TMV were generous gifts from Professor Ilan Sela, The Hebrew University of Jerusalem, Agriculture Faculty, Rehobot, Israel.
# [2] = test system: TMV (tobacco mosaic virus) replication in intact N. glutinosa plants; assay: Antiviral activity in N. glutinosa intact plants, infectivity test (local lesions); format: in vivo, tobacco mosaic virus; Nicotiana glutinosa; details: for induced resistance to TMV infection in the non-treated half-leaf: 1 μM (10^-6 M), in words
# Procedure: (§6) Nicotiana glutinosa and N. tabacum var. samsum plants were grown in potting medium in greenhouse conditions (25±3° C., and constant illumination). The plants were fertilized with a commercial fertilizer every two weeks. Plants were used at 5-8 leaf stage (Devash, Y., Biggs, S. and Sela, I. [1982] Science 216: 1415-1416; Devash, Y. et al. [1984] Jour. Biol. Chem. 259: 3482-3486).
# The ability of the antiviral dinucleotides to inhibit TMV replication in intact N. glutinosa plants (containing N-gene for TMV localization) was determined by infectivity tests. Solutions containing 5 μg/ml TMV, 0.1 μg/ml carborundum, and antiviral dinucleotide were applied to 5 half-leaves of N. glutinosa. The opposite half-leaves served as controls and were inoculated with infecting solution containing TMV and carborundum but no dinucleotides. The infection was allowed to proceed 48 hr. Inhibition of TMV replication was calculated as the percent of local lesions produced in antiviral compound treated half-leaves, as compared to control half-leaves.
# [3] = test system: TMV (tobacco mosaic virus) in N. tabacum plants; assay: Root application to N. tabacum intact plants (TMV content by ELISA); format: in vivo, tobacco mosaic virus; Nicotiana tabacum; details: for % Protection / ng TMV/g of leaves: 1 μM, roots, 2 hr; for ng TMV/g of leaves: control 200
# Procedure: as §6
# Nicotiana tabacum plants were used as a source of plant tissue in which TMV is spread systemically.
# (a) Root application: N. tabacum plants were removed from their pots and transferred into 50 ml tubes containing 10 ml of 10 mM HEPES-KOH, pH 7.6, and the antiviral dinucleotides. Two hr later, plants were transferred into 50 ml tubes lacking the antiviral compound and were inoculated by TMV as described above. Twenty-four hr later leaves were homogenized in 0.01M sodium phosphate buffer, pH 7.6, (1 g leaves/3 ml buffer) and TMV content was determined by ELISA.
# as §1, §2, §3, §4, §5
# In order to establish the relationship of the induced resistance to the N-gene for viral localization and to the transmission ability of the compounds, a comparison between leaf application and root application of antiviral dinucleotides to N. tabacum plants was made. N. tabacum plants were removed into vials containing 10 ml of 10 mM HEPES-KOH, pH 7.6, and 1 μM of antiviral dinucleotide. The plant roots were allowed to remain in the solutions for 2 hr and then were transferred to vials containing the buffer without the antiviral compounds.
# The plants then were infected with TMV as above. (See section 4. Antiviral activity on N. tabacum intact plants, paragraph [a].) Another group of N. tabacum plants was tested as described in the above-noted section, paragraph (b).
# [4] = 100 nM, treatment with [Ca^+2] coprecipitation, control 75
# [5] = 100 nM, treatment without [Ca^+2] coprecipitation, control 56
# [6] = 200 nM, treatment with [Ca^+2] coprecipitation, control 75
# [7] = 200 nM, treatment without [Ca^+2] coprecipitation, control 56
# [8] = 100 nM, treatment with [Ca^+2] coprecipitation
# [9] = 100 nM, treatment without [Ca^+2] coprecipitation
# [10] = 200 nM, treatment with [Ca^+2] coprecipitation
# [11] = 200 nM, treatment without [Ca^+2] coprecipitation
# [12] = 10 nM (10^-8 M), non-treated half-leaf
# [13] = 10 nM (10^-8 M), treated half-leaf
# [14] = 100 nM (10^-7 M), non-treated half-leaf
# [15] = 100 nM (10^-7 M), treated half-leaf
# [16] = 1000 nM (10^-6 M), non-treated half-leaf
# [17] = 1000 nM (10^-6 M), treated half-leaf
SMILES,"TMV content [1, 4] [ngTMV/ml]","TMV content [1, 5]","TMV content [1, 6] [ngTMV/ml]","TMV content [1, 7]","inhibition at 0.1 µM [1, 8] [%]","inhibition at 0.1 µM [1, 9] [%]","inhibition at 0.2 µM [1, 10] [%]","inhibition at 0.2 µM [1, 11] [%]","percent protection as compared to control TMV infected leaves [2, 12] [%]","percent protection as compared to control TMV infected leaves [2, 13] [%]","percent protection as compared to control TMV infected leaves [2, 14] [%]","percent protection as compared to control TMV infected leaves [2, 15] [%]",induced resistance to TMV infection in the non-treated half-leaf [2],"percent protection as compared to control TMV infected leaves [2, 16] [%]","percent protection as compared to control TMV infected leaves [2, 17] [%]","suppression (inhibition) of the virus ([3]; 1 μM (10^-6 M), exposure of plant roots)",% Protection [3] [%],ng TMV/g of leaves [3]
"Nc1ncnc2c1ncn2[C@@H]1O[C@H](COP(=O)(O)OP(=O)(O)OC[C@H]2O[C@@H](n3cnc4c(N)ncnc43)[C@H](O)[C@@H]2O)[C@@H](O)[C@H]1O [A5'pp5'A, diadenosine 5',5'""-p^1,p^2 -diphosphate]",48,N.I.,44,N.I.,36,0,41,0,68.4,96.0,54.6,95.4,resulted in an induced resistance to TMV infection even in the non-treated half-leaf,100,100,98-100%,100,0 ng TMV/g of leaves
"Nc1ncnc2c1ncn2[C@@H]1O[C@H](COP(=O)(O)OP(=O)(O)OP(=O)(O)OC[C@H]2O[C@@H](n3cnc4c(N)ncnc43)[C@H](O)[C@@H]2O)[C@@H](O)[C@H]1O [A5'ppp5'A, diadenosine 5',5""'-p^1,p3 -triphosphate]",65,N.I.,38,N.I.,13,0,50,0,80.3,98.6,100,100,resulted in an induced resistance to TMV infection even in the non-treated half-leaf,100,100,–,51,98 ng TMV/g of leaves
